Results from US20230323028A1, “ADHESIVE PHOTOPROTECTIVE COMPOUNDS AND USES THEREOF” (SKINOSIVE, priority 2019, published 2023).

Tests used:
[1] = λmax UV absorbance in solution; format: physicochemical
Method: λmax UV absorbance of diethylamino hydroxybenzoyl hexyl benzoate in ethanol/DMSO 9/1 was measured at 357 nm and λmax UV absorbance of Compound #16 was measured at 357 nm.
λmax UV absorbance of diethylamino hydroxybenzoyl hexyl benzoate in ethanol/DMSO 9/1 was measured at 357 nm and λmax UV absorbance of Compound #17 was measured at 357 nm.
λmax UV absorbance of Octocrylene in ethanol/DMSO 9/1 was measured at 305 nm and λmax UV absorbance of Compound #18 was measured at 293 nm.
λmax UV absorbance of Octocrylene in ethanol/DMSO 9/1 was measured at 305 nm and λmax UV absorbance of Compound #19 was measured at 308 nm.
λmax UV absorbance of Ecamsule in Ethanol/H2O/DMSO 5/3/2 was measured at 341 nm and λmax UV absorbance of Compound #20 was measured at 344 nm.
λmax UV absorbance of bemotrizinol in ethanol/benzyl alcohol/DMSO/Phenoxyethanol 63/18/10/9 was measured at 342 nm and λmax UV absorbance of Compound #21 was measured at 342 nm.
λmax UV absorbance of Octocrylene in ethanol was measured at 304 nm and Amax UV absorbance of Compound #23 was measured at 304 nm.

[2] = Bioadhesion in liquid phase: binding to cysteine, assayed by HPLC; settings: 1 to 2 minutes, Ethanol-1×PBS pH 6.8 (pH 6.0 for compound #23)
Method: The compounds bio adhesion was carried out in solution, for the protein binding, and for the specific binding of sulfhydryl-reactive chemical groups of cysteine. The compounds were mixed either with an equimolar solution of cysteine (two molar equivalent solution of cysteine for the compounds including two maleimides) or an excess of cysteine solution (five or ten times molar compound concentration) and were incubated 1 to 2 minutes in an Ethanol-1×PBS, pH 6.8 solution and in Ethanol-1×PBS, pH 6.0 solution for the compound #23.
The compound and the compound bound to the cysteine were identified by LC-MSD (Agilent 1260 Infinity II equipped with an Uptisphere strategy C18 or SunFire C18 column) and assayed by HPLC using an Agilent Infinity II Prime UHPLC UV detector system. The separation was achieved by using a gradient phase of water and acetonitrile on an Agilent Poroshell 120 EC-C18 column (3×100 mm, 2.7 μM).

[3] = Adhesion on thiolated polylysine matrix (UV absorbance of coated 96-well microplates); settings: UV absorbance at 300 nm; overnight incubation in ethanol/PBS (90%/10%); washed 10 times with ethanol
Method: (§1) Polylysine and Polylysine enriched in SH by thiolation of primary amines using Traut's reagent were used for coating 96-well microplates. Compound #23 (OOM) incubated overnight under orbital agitation on the different matrices (n=3 for each condition) (uncoated wells were used as negative controls), in an ethanol/PBS (90%/10%) solution. After incubation, each microplate well was thoroughly washed 10 times with ethanol, before measuring UV absorbance. Whole UV/Visible absorbance spectrum from 220 to 1000 nm were measured in the center of each microplate well. In addition, specific UV absorbance at 300 nm was measured by matrix scan over the whole the well as a 10×10 matrix.

[4] = Adhesion on polylysine matrix, non thiolated (UV absorbance of coated 96-well microplates); settings: UV absorbance at 300 nm; overnight incubation in ethanol/PBS (90%/10%); washed 10 times with ethanol
Method: as §1

pig skin = assay: UVB protection ex vivo on pig skin by autofluorescence quenching; settings: for UVB Fluorescence (Ex300/Em460), autofluorescence of pig skin: 4 h incubation at 37° C. in Dottisol, Mean ± SD, N = 3
Method: UVB protection has been assessed ex vivo on pig skin by measuring the autofluorescence quenching. OOM (Compound #23) and OCR (Octocrylene) were solubilized at the same molar concentration in Dottisol (isosorbide dimethyl ether), then covered 6.25 cm^2 skin square and incubated 4 hours at 37° C., washed or not with 10 mL Ethanol for 5 min on agitation. Then 7 mm diameter skin punches were cut and placed in a black 96-well plate. UVB protection was measured after respectively an excitation at 300 nm and a fluorescence emission was read at 460 nm.

[5] = equimolar cysteine:compound solution (two molar equivalents for compounds with two maleimides)
[6] = excess of cysteine (five or ten times molar compound concentration)
[7] = in ethanol/benzyl alcohol/DMSO/Phenoxyethanol 63/18/10/9
[8] = EtOH Wash (10 mL Ethanol, 5 min)

Structure (SMILES)	λmax UV absorbance ([1]; in ethanol/DMSO 9/1) [nm]	Cysteine-bound compound [2, 5] [%]	Free compound [2, 5] [%]	Cysteine-bound compound [2, 6] [%]	Free compound [2, 6] [%]	other results
N#CC(C(=O)NCCNC(=O)CCN1C(=O)C=CC1=O)=C(c1ccccc1)c1ccccc1 [Compound #18, 2-cyano-N-[2-[3-(2,5-dioxopyrrol-1-yl)propanoylamino]ethyl]-3,3-diphenyl-prop-2-enamide]	293	73	27	99	1	
CC1(C)C2CCC1(CS(=O)(=O)NCCNC(=O)CCN1C(=O)C=CC1=O)C(=O)/C2=C\c1ccc(/C=C2\C(=O)C3(CS(=O)(=O)NCCNC(=O)CCN4C(=O)C=CC4=O)CCC2C3(C)C)cc1 [Compound #20, 3-(2,5-dioxopyrrol-1-yl)-N-[2-[[(3Z)-3-[[4-[(Z)-[4-[2-[3-(2,5-dioxopyrrol-1-yl)propanoylamino]ethylsulfamoylmethyl]-7,7-dimethyl-3-oxo-norbornan-2-ylidene]methyl]phenyl]methylene]-7,7-dimethyl-2-oxo-norbornan-1-yl]methylsulfonylamino]ethyl]propanamide]		85	15	100	0	λmax UV absorbance ([1]; in Ethanol/H2O/DMSO 5/3/2): 344 nm
COc1ccc(-c2nc(-c3ccc(OCCCNC(=O)CCN4C(=O)C=CC4=O)cc3O)nc(-c3ccc(OCCCNC(=O)CCN4C(=O)C=CC4=O)cc3O)n2)cc1 [Compound #21, 3-(2,5-dioxopyrrol-1-yl)-N-[3-[4-[4-[4-[3-[3-(2,5-dioxopyrrol-1-yl)propanoylamino]propoxy]-2-hydroxy-phenyl]-6-(4-methoxyphenyl)-1,3,5-triazin-2-yl]-3-hydroxy-phenoxy]propyl]propanamide]						λmax UV absorbance [1, 7]: 342 nm
CC1(C)C2CCC1(CS(=O)(=O)O)C(=O)C2=Cc1ccc(C=C2C(=O)C3(CS(=O)(=O)O)CCC2C3(C)C)cc1 [Ecamsule, terephtalylidene dicamphor sulfonic acid, reference compound]						λmax UV absorbance ([1]; in Ethanol/H2O/DMSO 5/3/2): 341 nm
CCCCC(CC)COc1ccc(-c2nc(-c3ccc(OC)cc3)nc(-c3ccc(OCC(CC)CCCC)cc3O)n2)c(O)c1 (stereo not shown) [bemotrizinol, reference compound]						λmax UV absorbance [1, 7]: 342 nm

More lines, main results first:

λmax UV absorbance ([1]; in ethanol/DMSO 9/1) [nm]	Cysteine-bound compound [2, 5] [%]	Free compound [2, 5] [%]	Cysteine-bound compound [2, 6] [%]	Free compound [2, 6] [%]	Structure (SMILES)	other results
357	75	25	92	8	CCN(CC)c1ccc(C(=O)c2ccccc2C(=O)OCCOCCNC(=O)CCN2C(=O)C=CC2=O)c(O)c1 [Compound #16, 2-[4-(diethylamino)-2-hydroxybenzoyl]-benzoic acid, 2-[2-[3-(2,5-dioxopyrrol-1-yl)propanoylamino]ethoxy]ethyl ester]	
357	78	22			CCN(CC)c1ccc(C(=O)c2ccccc2C(=O)OCCNC(=O)CCN2C(=O)C=CC2=O)c(O)c1 [Compound #17, 2-[4-(diethylamino)-2-hydroxy-benzoyl]benzoic acid, 2-[3-(2,5-dioxopyrrol-1-yl)propanoylamino]ethyl ester]	
308	71	29			N#CC(C(=O)OCCS(=O)(=O)CCNC(=O)CCN1C(=O)C=CC1=O)=C(c1ccccc1)c1ccccc1 [Compound #19, 2-cyano-3,3-diphenyl-prop-2-enoate, 2-[2-[3-(2,5-dioxopyrrol-1-yl)propanoylamino]ethylsulfonyl]ethyl ester]	
	100	0	100	0	N#CC(C(=O)OCCCCCCCCNC(=O)CCN1C(=O)C=CC1=O)=C(c1ccccc1)c1ccccc1 [Compound #23, 8-(3-(2,5-dioxo-2,5-dihydro-1H-pyrrol-1-yl)propanamido)octyl 2-cyano-3,3-diphenylacrylate]	λmax UV absorbance ([1]; in ethanol): 304 nm; bio adhesion on thiolated polylysine matrix [3]: showed a bio adhesion; bioadhesion on polylysine matrix (non thiolated) [4]: no bioadhesion; UVB Fluorescence (Ex300/Em460), autofluorescence of pig skin (pig skin; [8]): 34870 ± 2729; UVB Fluorescence (Ex300/Em460), autofluorescence of pig skin (pig skin; No Wash): 25544 ± 3797; reduction of UVB protection after ethanol wash compared to the initial protection before washing (pig skin; ethanol wash): 30%; bio adhesion on pig skin (conclusion) (pig skin; retention of UVB protection after ethanol wash): bio adhesive; UVB protection of the pig skin compared with octocrylene (OCR) (pig skin; same molar concentration, no wash): more than two times higher
305					CCCCC(CC)COC(=O)C(C#N)=C(c1ccccc1)c1ccccc1 (stereo not shown) [Octocrylene, reference compound]	λmax UV absorbance ([1]; in ethanol): 304 nm; bio adhesion on thiolated polylysine matrix [3]: did not show a bio adhesion; UVB Fluorescence (Ex300/Em460), autofluorescence of pig skin (pig skin; [8]): 201968 ± 11493; UVB Fluorescence (Ex300/Em460), autofluorescence of pig skin (pig skin; No Wash): 64781 ± 3246; UVB protection after the ethanol washing step (pig skin; ethanol wash): corresponds to the unprotected control
357					CCCCCCOC(=O)c1ccccc1C(=O)c1ccc(N(CC)CC)cc1O [diethylamino hydroxybenzoyl hexyl benzoate, reference compound]	
